Test system: acetylcholine (ACh)
Assay: In vivo microdialysis, acetylcholine (ACh) levels in striatum
Design: species or system male Sprague-Dawley Rats
Settings: 10 mg/kg PO, rat striatum ACh
Procedure: Microdialysis Methodology
Surgery: For these studies, male Sprague-Dawley Rats (250-350 g) were anesthetized with sodium pentobarbital (54 mg/kg, ip) and placed on a Kopf sterotaxic apparatus. The skull was exposed and drilled through to the dura at a point 0.2 mm anterior and 3.0 mm lateral to the bregma. At these coordinates, a guide cannula was positioned at the outer edge of the dura through the drilled opening, lowered perpendicularly to a depth of 2.5 mm, and permanently secured with dental cement to bone screws. Following the surgery, rats were given ampicillin (40 mg/kg, ip) and individually housed in modified cages. A recovery period of approximately 3 to 7 days was allowed before the microdialysis procedure was undertaken.
Microdialysis: All of the equipment and instrumentation used to conduct in vivo microdialysis was obtained from Bioanalytical Systems, Inc. (BAS). The microdialysis procedure involved the insertion through the guide cannula of a thin, needle-like perfusable probe (CMA/12, 3 mm×0.5 mm) to a depth of 3 mm in striatum beyond the end of the guide. The probe was connected beforehand with tubing to a microinjection pump (CMA/100). Rats were collared, tethered, and, following probe insertion, were placed in a large, clear, plexiglass bowl with litter material and access to food and water. The probe was perfused at 2, μl/min with Ringer's buffer (NaCl 147 mM; KCl 3.0 mM; CaCl2 1.2 mM; MgCl2 1.0 mM) containing 5.5 mM glucose, 0.2 mM L-ascorbate, and 1 μM neostigmine bromide at pH 7.4). To achieve stable baseline readings, microdialysis was allowed to proceed for 90 minutes prior to the collection of fractions. Fractions (20 μl) were obtained at 10 minute intervals over a 3 hour period using a refrigerated collector (CMA/1 70 or 200). Four to five baseline fractions were collected, following which the drug or combination of drugs to be tested was administered to the animal. Upon completion of the collection, each rat was autopsied to determine accuracy of probe placement.
Acetylcholine (ACh) analysis: The concentration of ACh in collected samples of microdialysate was determined using HPLC/electrochemical detection. Samples were auto-injected (Waters 712 Refrigerated Sample Processor) onto a polymeric analytical HPLC column (BAS, MF-6150) and eluted with 50 mM Na2 HPO4, pH 8.5. To prevent bacterial growth, Kathon CG reagent (0.005%) (BAS) was included in the mobile phase. Eluent from the analytical column, containing separated ACh and choline, was then immediately passed through an immobilized enzyme reactor cartridge (BAS, MF-6151) coupled to the column outlet. […] Integration and quantification of peaks were accomplished using "Maxima" chromatography software (Waters Corporation). […]

| Structure (SMILES) | Microdialysis Maximum % of baseline |
| --- | --- |
| COc1ccc(S(=O)(=O)c2ccc(C3(C4CCN(C5CCN(C(=O)c6cccc(C)c6N)CC5)CC4)OCCO3)cc2)cc1 [Example 2] | 194% |
| COc1ccc(S(=O)(=O)c2ccc(C3(C4CCN(C5CCN(C(=O)c6cccc(F)c6N)CC5)CC4)OCCO3)cc2)cc1 [Example 2F] | 186% |
| Nc1cc(F)ccc1C(=O)N1CCC(N2CCC(C3(c4ccc(S(=O)(=O)c5cccc(Cl)c5)cc4)OCCO3)CC2)CC1 [Example 3E] | 188% |
| Nc1ccccc1C(=O)N1CCC(N2CCC(Cc3ccc(S(=O)(=O)c4cccc(Cl)c4)cc3)CC2)CC1 [Example 7A] | 150% |

Reference: patent US6294554A (priority 2000, dated 2001)
